The source of these data is patent US8557872B2, “Compounds, isomer thereof, or pharmaceutically acceptable salts thereof as vanilloid receptor antagonist; and pharmaceutical compositions containing the same” (Amorepacific Corporation, priority 2008, dated 2013).

Molecules are shown by their SMILES.

T1 sequence (O35433 whole entry): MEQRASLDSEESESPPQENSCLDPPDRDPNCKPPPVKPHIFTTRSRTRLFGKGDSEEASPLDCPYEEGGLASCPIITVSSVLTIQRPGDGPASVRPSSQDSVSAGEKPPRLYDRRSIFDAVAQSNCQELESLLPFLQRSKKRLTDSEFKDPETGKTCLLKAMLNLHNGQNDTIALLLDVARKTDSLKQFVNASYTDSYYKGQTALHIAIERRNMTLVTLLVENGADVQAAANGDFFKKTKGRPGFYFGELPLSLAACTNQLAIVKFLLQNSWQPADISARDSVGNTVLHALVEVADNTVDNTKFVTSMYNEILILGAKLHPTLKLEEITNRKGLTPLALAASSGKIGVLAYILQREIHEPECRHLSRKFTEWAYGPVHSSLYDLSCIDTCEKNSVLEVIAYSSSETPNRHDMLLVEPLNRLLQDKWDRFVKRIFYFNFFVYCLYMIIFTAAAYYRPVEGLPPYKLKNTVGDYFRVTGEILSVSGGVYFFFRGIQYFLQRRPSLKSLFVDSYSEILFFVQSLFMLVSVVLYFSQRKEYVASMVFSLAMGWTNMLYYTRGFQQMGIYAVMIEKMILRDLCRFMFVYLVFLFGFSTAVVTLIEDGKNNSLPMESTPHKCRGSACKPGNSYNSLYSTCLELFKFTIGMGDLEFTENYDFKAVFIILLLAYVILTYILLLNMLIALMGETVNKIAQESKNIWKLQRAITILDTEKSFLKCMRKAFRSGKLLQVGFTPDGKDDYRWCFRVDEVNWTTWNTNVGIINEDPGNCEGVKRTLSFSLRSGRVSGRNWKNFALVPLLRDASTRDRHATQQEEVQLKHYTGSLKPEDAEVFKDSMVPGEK

The first test has as its target T1, vanilloid receptor (Rattus norvegicus, UniProt O35433).
T1 construct: DRG nerve cells from the primary culture of 2 days were equilibrated by washing 4 times; endogenous in cells; host or cells: primary culture of dorsal root ganglion neurons from neonatal SD rats
Put plainly: 45Ca influx test (calcium uptake) in primary cultured DRG neurons, capsaicin 0.5 μM. The conditions noted are these: comparison with comparative compounds F and G; read-out: IC50 value. Format: cell-based. The protocol: 1) Separation of Spinal Dorsal Root Ganglia (DRG) in Newborn Rats and Primary Culture Thereof
Neonatal (2-3 day old or younger than 2-3 day old) SD rats were put in ice for 5 minutes to anesthetize and disinfected with 70% ethanol. […] The DRG were incubated sequentially at 37° C. for 30 mins in 200 U/ml collagenase and 2.5 mg/ml trypsin, separately. The ganglia were washed twice with DME/F12 medium supplemented with 10% horse serum, triturated through a fire-polished Pasteur pipette, filtered through Nitex 80 membrane to obtain single cell suspension and the suspension was washed once more. This was subjected to centrifugation, then resuspended in cell culture medium at certain level of cell density. As the cell culture medium, DME/F12 medium supplemented with 10% horse serum was diluted with identical medium conditioned by C6 glioma cells 2 days on a confluent monolayer (1:1), and NGF (Nerve Growth Factor) was added to adjust 200 ng/ml as final concentration. After the cells were grown 2 days in medium where cytosine arabinoside (Ara-C, 100 μM) was added to kill dividing nonneuronal cells, medium was changed to one without Ara-C. The resuspended cells were plated at a density of 1500-2000 neurons/well onto Terasaki plates previously coated with 10 μg/ml poly-D-ornithine.
2) ^45Ca Influx Experiments
DRG nerve cells from the primary culture of 2 days were equilibrated by washing 4 times with HEPES (10 mM, pH 7.4)-buffered Ca^2+, Mg^2+-free HBSS (H-HBSS). The solution in each well was removed from the individual well. Medium containing the test compound plus capsaicin (final concentration 0.5 μM) and ^45Ca (final concentration 10 μCi/ml) in H-HBSS was added to each well and incubated at room temperature for 10 mins. Terasaki plates were washed five times with H-HBSS and dried at room temperature. To each well, 0.3% SDS (10 μl) was added to elute ^45Ca. After the addition of scintillation cocktail of into each well, the amount of ^45Ca influx into neuron was measured by counting radioactivity.
Consider `C=Cc1cc(CNC(=O)/C=C/c2ccc(C(F)(F)F)cc2NCCC)cc(F)c1NS(C)(=O)=O` [Example 12, N-(3-Fluoro-4-methanesulfonylamino-5-vinyl-benzyl)-3-(2-propylamino-4-trifluoromethyl-phenyl)-acrylamide], for which the concentration for half-maximal inhibition (IC50) – broadly, the concentration that gives 50% inhibition – came to 150 nM.

The same test, now with this note: rat DRG neurons, capsaicin 0.5 μM, 45Ca; read-out: Antagonist Calcium Uptake Test (IC50).
`C#Cc1cc(CNC(=O)/C=C/c2ccc(C(F)(F)F)cc2CCC)cc(F)c1NS(C)(=O)=O` [Example 35, N-(3-Ethynyl-5-fluoro-4-methanesulfonylamino-benzyl)-3-(2-propyl-4-trifluoromethyl-phenyl)-acrylamide]: the half-maximal inhibitory concentration (IC50) came to 92 nM. Consider `CC(C)Oc1cc(C(F)(F)F)ccc1/C=C/C(=O)NCc1cc(F)c(NS(C)(=O)=O)c(F)c1` [Example 20, N-(3,5-Difluoro-4-methanesulfonylamino-benzyl)-3-(2-isopropoxy-4-trifluoromethyl-phenyl)-acrylamide], for which the concentration for half-maximal inhibition (IC50) came to 150 nM. Turning to `CC(C)Cc1cc(C(F)(F)F)ccc1/C=C/C(=O)N[C@H](C)c1cc(F)c(NS(C)(=O)=O)c(F)c1` [Example 47, (R)—N-[1-(3,5-Difluoro-4-methanesulfonylamino-phenyl)-ethyl]-3-(2-isobutyl-4-trifluoromethyl-phenyl)-acrylamide], the half-inhibitory concentration (IC50) worked out at 94 nM. Turning to `CCCc1cc(C(F)(F)F)ccc1/C=C/C(=O)NCc1cc(C)c(NS(C)(=O)=O)c(F)c1` [Example 23, N-(3-Fluoro-4-methanesulfonylamino-5-methyl-benzyl)-3-(2-propyl-4-trifluoromethyl-phenyl)-acrylamide], the IC50 stood at 270 nM. For `CCC(C)Oc1cc(F)ccc1/C=C/C(=O)N[C@H](C)c1cc(F)c(NS(C)(=O)=O)c(F)c1` (stereo partly drawn) [Example 40, (R)-3-(2-sec-Butoxy-4-fluoro-phenyl)-N-[1-(3,5-difluoro-4-methanesulfonylamino-phenyl)-ethyl]-acrylamide], the IC50 stood at 100 nM. Take `CCNc1cc(C(F)(F)F)ccc1/C=C/C(=O)NCc1cc(F)c(NS(C)(=O)=O)c(F)c1` [Example 18, N-(3,5-Difluoro-4-methanesulfonylamino-benzyl)-3-(2-ethylamino-4-trifluoromethyl-phenyl)-acrylamide]: the half-maximal inhibitory concentration (IC50) worked out at 83 nM.

Turning to `CCCOc1cc(F)ccc1/C=C/C(=O)N[C@H](C)c1cc(F)c(NS(C)(=O)=O)c(F)c1` [Example 27, (R)—N-[1-(3,5-Difluoro-4-methanesulfonylamino-phenyl)-ethyl]-3-(4-fluoro-2-propoxy-phenyl)-acrylamide], the 50% inhibitory concentration (IC50) amounted to 170 nM. For the compound `CCNc1cc(C(F)(F)F)ccc1/C=C/C(=O)NCc1cc(C)c(NS(C)(=O)=O)c(F)c1` [Example 19, 3-(2-Ethylamino-4-trifluoromethyl-phenyl)-N-(3-fluoro-4-methanesulfonylamino-5-methyl-benzyl)-acrylamide], the IC50 came to 160 nM.

Take `CCCc1cc(C(F)(F)F)ccc1/C=C(\C)C(=O)N[C@H](C)c1cc(F)c(NS(C)(=O)=O)c(F)c1` [Example 48, (R)—N-[1-(3,5-Difluoro-4-methanesulfonylamino-phenyl)-ethyl]-2-methyl-3-(2-propyl-4-trifluoromethyl-phenyl)-acrylamide]: the IC50 stood at 530 nM. Regarding `CC(C)Oc1cc(C(F)(F)F)ccc1/C=C/C(=O)N[C@H](C)c1cc(F)c(NS(C)(=O)=O)c(F)c1` [Example 26, (R)—N-[1-(3,5-Difluoro-4-methanesulfonylamino-phenyl)-ethyl]-3-(2-isopropoxy-4-trifluoromethyl-phenyl)-acrylamide], the concentration for half-maximal inhibition (IC50) is 47 nM.

As for `CCCCOc1cc(C(F)(F)F)ccc1/C=C/C(=O)NCc1cc(F)c(NS(C)(=O)=O)c(F)c1` [Example 32, 3-(2-Butoxy-4-trifluoromethyl-phenyl)-N-(3,5-difluoro-4-methanesulfonylamino-benzyl)-acrylamide], the half-maximal inhibitory concentration (IC50) came out at 2200 nM. As to `C[C@@H](NC(=O)/C=C/c1ccc(C(F)(F)F)cc1N1CCCCC1)c1cc(F)c(NS(C)(=O)=O)c(F)c1` [Example 52], the IC50 is 340 nM. Turning to `CCCCOc1cc(C(F)(F)F)ccc1/C=C/C(=O)N[C@H](CC)c1cc(F)c(NS(C)(=O)=O)c(F)c1` (stereo in doubt) [Example 38, 3-(2-Butoxy-4-trifluoromethyl-phenyl)-N-[1-(3,5-difluoro-4-methanesulfonylamino-phenyl)-propyl]-acrylamide], the half-maximal inhibitory concentration (IC50) turned out to be 1100 nM. In the case of `CCCNc1cc(C(F)(F)F)ccc1/C=C/C(=O)NCc1cc(F)c(NS(C)(=O)=O)c(C#N)c1` [Example 13, N-(3-Cyano-5-fluoro-4-methanesulfonylamino-benzyl)-3-(2-propylamino-4-trifluoromethyl-phenyl)-acrylamide], the IC50 was determined as 120 nM. On to `CCCOc1cc(F)ccc1/C=C/C(=O)NCc1cc(F)c(NS(C)(=O)=O)c(F)c1` [Example 28, N-(3,5-Difluoro-4-methanesulfonylamino-benzyl)-3-(4-fluoro-2-propoxy-phenyl)-acrylamide], for which the IC50 is 1100 nM. The same measure, in the same setting: with `CCOc1cc(C(F)(F)F)ccc1/C=C/C(=O)N[C@H](CC)c1cc(F)c(NS(C)(=O)=O)c(F)c1` (stereo in doubt) [Example 37, N-[1-(3,5-Difluoro-4-methanesulfonylamino-phenyl)-propyl]-3-(2-ethoxy-4-trifluoromethyl-phenyl)-acrylamide] the figure was 1700 nM. `C[C@@H](NC(=O)/C=C/c1ccc(C(F)(F)F)cc1OCC1CCCCC1)c1cc(F)c(NS(C)(=O)=O)c(F)c1` [Example 50, (R)-3-(2-Cyclohexylmethoxy-4-trifluoromethyl-phenyl)-N-[1-(3,5-difluoro-4-methanesulfonylamino-phenyl)-ethyl]-acrylamide]: the IC50 turned out to be 210 nM. Regarding `CCCCOc1cc(F)ccc1/C=C/C(=O)NCc1cc(F)c(NS(C)(=O)=O)c(F)c1` [Example 34, 3-(2-Butoxy-4-fluoro-phenyl)-N-(3,5-difluoro-4-methanesulfonylamino-benzyl)-acrylamide], the half-inhibitory concentration (IC50) came to 980 nM. As to `CCCNc1cc(C(F)(F)F)ccc1CCC(=O)N[C@H](C)c1cc(F)c(NS(C)(=O)=O)c(F)c1` [Example 55, (R)—N-[1-(3,5-difluoro-4-methanesulfonylamino-phenyl)-ethyl]-3-(2-propylamino-4-trifluoromethyl-phenyl)-propionamide], the half-inhibitory concentration (IC50) stood at 190 nM. As for `CCOc1cc(C(F)(F)F)ccc1/C=C/C(=O)NCc1cc(F)c(NS(C)(=O)=O)c(F)c1` [Example 8, N-(3,5-Difluoro-4-methanesulfonylamino-benzyl)-3-(2-ethoxy-4-trifluoromethyl-phenyl)-acrylamide], the IC50 was determined as 850 nM.

With `CCCNc1cc(C(F)(F)F)ccc1/C=C/C(=O)NCc1cc(C)c(NS(C)(=O)=O)c(F)c1` [Example 11, N-(3-Fluoro-4-methanesulfonylamino-5-methyl-benzyl)-3-(2-propylamino-4-trifluoromethyl-phenyl)-acrylamide], the IC50 is 62 nM. As to `CCCc1cc(C(F)(F)F)cc(CCC)c1/C=C/C(=O)N[C@H](C)c1cc(F)c(NS(C)(=O)=O)c(F)c1` [Example 6, (R)—N-[1-(3,5-Difluoro-4-methanesulfonylamino-phenyl)-ethyl]-3-(2,6-dipropyl-4-trifluoromethyl-phenyl)-acrylamide], the IC50 was 26 nM. Take `CCCc1cc(C(F)(F)F)ccc1/C=C/C(=O)N[C@H](C)c1ccc(NS(C)(=O)=O)c(F)c1` [Example 44]: the concentration for half-maximal inhibition (IC50) was 91 nM.

Take `CCC(C)Oc1cc(F)ccc1/C=C/C(=O)NCc1cc(F)c(NS(C)(=O)=O)c(F)c1` (centres unmarked) [Example 41, 3-(2-sec-Butoxy-4-fluoro-phenyl)-N-(3,5-difluoro-4-methanesulfonylamino-benzyl)-acrylamide]: the IC50 was found to be 550 nM. With `C#Cc1cc(CNC(=O)/C=C/c2ccc(C(F)(F)F)cc2OCCC)cc(F)c1NS(C)(=O)=O` [Example 14, N-(3-Ethynyl-5-fluoro-4-methanesulfonylamino-benzyl)-3-(2-propoxy-4-trifluoromethyl-phenyl)-acrylamide], the IC50 was 240 nM. Same read-out and setting: with `CCNc1cc(F)ccc1/C=C/C(=O)N[C@H](C)c1cc(F)c(NS(C)(=O)=O)c(F)c1` [Example 42, (R)—N-[1-(3,5-Difluoro-4-methanesulfonylamino-phenyl)-ethyl]-3-(2-ethylamino-4-fluoro-phenyl)-acrylamide] the figure was 110 nM; with `CCOc1cc(C(F)(F)F)ccc1/C=C/C(=O)N[C@H](C)c1ccc(NS(C)(=O)=O)c(F)c1` [Example 9, (R)—N-[1-(3-Fluoro-4-methanesulfonylamino-phenyl)-ethyl]-3-(2-ethoxy-4-trifluoromethyl-phenyl)-acrylamide], 340 nM. For the compound `CCCc1cc(C(F)(F)F)ccc1/C=C/C(=O)N[C@H](CC)c1cc(F)c(NS(C)(=O)=O)c(F)c1` [Example 25, (R)—N-[1-(3,5-Difluoro-4-methanesulfonylamino-phenyl)-propyl]-3-(2-propyl-4-trifluoromethyl-phenyl)-acrylamide], the IC50 turned out to be 170 nM.
